Assay results taken from ChEMBL document CHEMBL1201862, “PubChem BioAssay data set” (2004).
Activity calls are given as the source filed them.

Key:
[1] = target: T1, Carboxy-terminal domain RNA polymerase II polypeptide A small phosphatase 1 (Homo sapiens, UniProt Q9GZU7); assay: CTDSP1 inhibitors, concentration-response, biochemical, absorbance readout, ultra-high-throughput screen actives (AID 540297); format: functional
T1 sequence (Q9GZU7 whole entry): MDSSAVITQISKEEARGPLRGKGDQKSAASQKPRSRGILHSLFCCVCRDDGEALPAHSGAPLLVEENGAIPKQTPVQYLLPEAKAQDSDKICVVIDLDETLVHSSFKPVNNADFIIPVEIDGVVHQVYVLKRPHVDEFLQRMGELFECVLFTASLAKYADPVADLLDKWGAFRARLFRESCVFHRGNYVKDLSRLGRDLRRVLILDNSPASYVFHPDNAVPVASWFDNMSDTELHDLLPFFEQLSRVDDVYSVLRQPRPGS

[2] = target: T2, Low molecular weight phosphotyrosine protein phosphatase (Homo sapiens, UniProt P24666); format: functional; conditions: read-out: IC50_Mean;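 further: Dose-response confirmation assay measuring inhibition of LMPTP enzyme activity by fluorescence intensity read-out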
T2 sequence (P24666 whole entry): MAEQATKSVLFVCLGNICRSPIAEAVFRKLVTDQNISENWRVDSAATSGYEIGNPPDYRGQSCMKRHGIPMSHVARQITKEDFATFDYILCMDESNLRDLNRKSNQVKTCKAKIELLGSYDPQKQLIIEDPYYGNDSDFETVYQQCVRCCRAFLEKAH

[3] = target: Glucose-6-phosphate 1-dehydrogenase (Homo sapiens, UniProt P11413); assay: inhibition of Homo sapiens G6PD, dose series – biochemical, fluorescence, selectivity assay for P. falciparum G6PD inhibitor project, dose response (AID 504792); format: functional
Chain of Glucose-6-phosphate 1-dehydrogenase (P11413 whole entry): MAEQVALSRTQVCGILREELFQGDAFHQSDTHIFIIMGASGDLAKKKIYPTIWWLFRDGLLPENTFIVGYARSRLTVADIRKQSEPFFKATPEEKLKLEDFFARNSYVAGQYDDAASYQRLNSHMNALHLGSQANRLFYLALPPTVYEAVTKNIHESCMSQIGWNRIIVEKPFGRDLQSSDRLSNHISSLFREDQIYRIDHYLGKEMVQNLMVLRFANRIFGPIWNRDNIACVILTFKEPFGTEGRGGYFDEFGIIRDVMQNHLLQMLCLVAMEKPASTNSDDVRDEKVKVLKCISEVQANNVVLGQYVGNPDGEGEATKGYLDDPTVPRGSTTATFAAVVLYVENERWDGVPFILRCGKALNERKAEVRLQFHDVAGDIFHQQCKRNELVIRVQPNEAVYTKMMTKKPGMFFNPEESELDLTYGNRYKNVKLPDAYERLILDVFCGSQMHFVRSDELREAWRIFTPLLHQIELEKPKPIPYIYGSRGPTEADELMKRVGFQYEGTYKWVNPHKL

[4] = target: Nonstructural protein 1 (Influenza A virus, UniProt Q194T2); format: functional, Influenza A virus (A/California/07/2009(H1N1))
Chain of Nonstructural protein 1 (Q194T2 whole entry): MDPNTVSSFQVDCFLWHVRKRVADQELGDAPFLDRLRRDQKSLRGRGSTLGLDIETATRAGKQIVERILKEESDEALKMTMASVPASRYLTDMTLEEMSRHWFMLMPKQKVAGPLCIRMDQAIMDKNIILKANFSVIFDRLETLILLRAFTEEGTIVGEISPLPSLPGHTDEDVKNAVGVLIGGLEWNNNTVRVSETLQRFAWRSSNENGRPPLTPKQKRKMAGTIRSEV

[5] = system: H9c2; assay: cells; format: functional, cell-based; conditions: Rattus norvegicus, H9c2, Myocardium;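 further: confirmatory concentration-response retest of ultra-high-throughput screening hits for modulation of myocardial damage; cell death induced by hydrogen peroxide oxidative stress; compound pretreatment for 60 min then peroxide exposure for 2 h; potency is for protecting the cells against peroxide damage rather than for killing them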
[6] = target: T3, Tyrosyl-DNA phosphodiesterase 2 (Homo sapiens, UniProt O95551); assay: potency against TDP2 phosphodiesterase activity – biochemical, epi absorbance, IC50, dose response (AID 743297)
T3 sequence (O95551 whole entry): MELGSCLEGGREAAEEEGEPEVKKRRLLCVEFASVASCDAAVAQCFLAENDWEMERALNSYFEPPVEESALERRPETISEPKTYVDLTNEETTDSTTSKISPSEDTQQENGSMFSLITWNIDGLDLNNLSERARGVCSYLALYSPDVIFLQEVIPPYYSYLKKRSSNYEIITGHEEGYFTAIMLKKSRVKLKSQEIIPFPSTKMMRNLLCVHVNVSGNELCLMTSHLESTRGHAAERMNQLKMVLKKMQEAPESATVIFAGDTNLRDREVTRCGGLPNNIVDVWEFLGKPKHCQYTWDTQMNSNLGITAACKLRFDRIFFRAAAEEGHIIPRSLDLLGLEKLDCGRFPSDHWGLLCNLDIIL

[7] = target: Large T antigen (Simian virus 40, UniProt P03070); format: functional, Betapolyomavirus macacae;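 further: Confirmatory-stage PubChem screen for compounds that inhibit SV40 T antigen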
Chain of Large T antigen (P03070 whole entry): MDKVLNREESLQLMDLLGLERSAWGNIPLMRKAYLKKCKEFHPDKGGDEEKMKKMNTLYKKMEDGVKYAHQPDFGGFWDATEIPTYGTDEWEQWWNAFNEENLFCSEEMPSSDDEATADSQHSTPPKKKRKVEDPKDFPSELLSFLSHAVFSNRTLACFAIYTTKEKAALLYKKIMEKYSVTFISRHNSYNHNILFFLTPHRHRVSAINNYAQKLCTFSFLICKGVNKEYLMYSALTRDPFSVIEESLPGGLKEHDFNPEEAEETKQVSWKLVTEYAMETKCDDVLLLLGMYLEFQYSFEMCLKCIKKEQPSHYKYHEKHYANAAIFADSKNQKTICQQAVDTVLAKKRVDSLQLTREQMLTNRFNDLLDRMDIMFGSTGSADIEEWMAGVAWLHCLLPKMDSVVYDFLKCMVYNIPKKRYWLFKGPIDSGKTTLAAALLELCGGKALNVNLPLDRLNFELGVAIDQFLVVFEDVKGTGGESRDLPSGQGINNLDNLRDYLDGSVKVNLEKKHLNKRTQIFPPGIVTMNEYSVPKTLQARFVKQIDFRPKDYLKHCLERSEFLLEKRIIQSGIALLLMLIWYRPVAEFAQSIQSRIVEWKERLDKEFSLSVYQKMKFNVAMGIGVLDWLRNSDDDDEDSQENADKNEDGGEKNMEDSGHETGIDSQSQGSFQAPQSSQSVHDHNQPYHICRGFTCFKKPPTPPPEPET

[8] = luciferase reporter signal suppression in cells – H4 neuroglioma cells, luminescence, dose response (AID 1990); format: functional, cell-based
[9] = alpha-synuclein stem-loop luciferase translation blockers – H4 neuroglioma cells, luminescence, confirmation (AID 1988); format: functional, cell-based
[10] = Luminescence Cell-Based Dose Response HTS to Identify Inhibitors of 5'UTR Stem-Loop Driven Prion Protein mRNA Translation in H4 Neuroglioblastoma Cells. [Related pubchem assays: 1827 (Project Summary), 1813 (Primary HTS)]; format: functional
[11] = blockers of bursicon-stimulated LGR2 cAMP reporter – cell-based, HEK293, CRE-luciferase reporter, cherry pick, set 2, dose response (AID 743343); format: functional;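 further: transfected cells were stimulated with diluted bursicon conditioned medium after compound addition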
[12] = viability loss in HEK293 cells – cell-based, plate reader, cherry-picked samples, cytotoxicity control, dose response (AID 743446); format: functional
[13] = A549 cell cytotoxicity, dose response, cytotoxicity control, plate reader, cherry-pick, antagonist series (AID 743412); format: functional, cell-based
[14] = target: T4, Corticotropin-releasing factor receptor 2/Corticotropin-releasing factor-binding protein (Homo sapiens, UniProt P24387+Q13324); assay: Dose Response confirmation of uHTS hits for small molecule antagonists of the CRF-binding protein and CRF-R2 receptor complex.; format: functional; conditions: read-out: IC50_Mean
T4 sequence (Q13324 whole entry): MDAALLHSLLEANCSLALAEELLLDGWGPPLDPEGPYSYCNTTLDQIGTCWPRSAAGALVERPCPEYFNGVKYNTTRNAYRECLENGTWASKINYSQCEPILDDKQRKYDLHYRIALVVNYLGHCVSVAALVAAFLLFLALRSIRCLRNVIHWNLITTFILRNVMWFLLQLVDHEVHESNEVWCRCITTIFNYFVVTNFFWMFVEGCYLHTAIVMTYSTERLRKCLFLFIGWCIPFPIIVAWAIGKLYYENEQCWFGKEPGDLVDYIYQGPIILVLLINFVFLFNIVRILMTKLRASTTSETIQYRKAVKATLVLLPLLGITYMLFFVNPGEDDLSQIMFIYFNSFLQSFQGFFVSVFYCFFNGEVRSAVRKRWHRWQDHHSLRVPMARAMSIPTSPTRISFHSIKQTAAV
T4 sequence (P24387 whole entry): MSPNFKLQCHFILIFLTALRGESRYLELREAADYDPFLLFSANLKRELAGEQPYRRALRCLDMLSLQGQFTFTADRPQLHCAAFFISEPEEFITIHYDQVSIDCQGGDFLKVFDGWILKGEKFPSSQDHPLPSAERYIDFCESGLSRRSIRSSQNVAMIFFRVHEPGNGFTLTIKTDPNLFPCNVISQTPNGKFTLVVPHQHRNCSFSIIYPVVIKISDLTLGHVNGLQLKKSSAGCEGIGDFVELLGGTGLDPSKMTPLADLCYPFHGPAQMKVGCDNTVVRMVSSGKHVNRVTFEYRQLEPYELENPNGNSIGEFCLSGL

[15] = target: T4, Corticotropin-releasing factor receptor 2/Corticotropin-releasing factor-binding protein; assay: activators of CRF receptor 2 with binding protein – uHTS hits, confirmation (AID 602473); format: functional; conditions: read-out: EC50_Mean
[16] = target: Cytochrome P450 2D6 (Homo sapiens, UniProt P10635);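 further: CYP2D6 member of a cytochrome P450 panel assay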
Chain of Cytochrome P450 2D6 (P10635 whole entry): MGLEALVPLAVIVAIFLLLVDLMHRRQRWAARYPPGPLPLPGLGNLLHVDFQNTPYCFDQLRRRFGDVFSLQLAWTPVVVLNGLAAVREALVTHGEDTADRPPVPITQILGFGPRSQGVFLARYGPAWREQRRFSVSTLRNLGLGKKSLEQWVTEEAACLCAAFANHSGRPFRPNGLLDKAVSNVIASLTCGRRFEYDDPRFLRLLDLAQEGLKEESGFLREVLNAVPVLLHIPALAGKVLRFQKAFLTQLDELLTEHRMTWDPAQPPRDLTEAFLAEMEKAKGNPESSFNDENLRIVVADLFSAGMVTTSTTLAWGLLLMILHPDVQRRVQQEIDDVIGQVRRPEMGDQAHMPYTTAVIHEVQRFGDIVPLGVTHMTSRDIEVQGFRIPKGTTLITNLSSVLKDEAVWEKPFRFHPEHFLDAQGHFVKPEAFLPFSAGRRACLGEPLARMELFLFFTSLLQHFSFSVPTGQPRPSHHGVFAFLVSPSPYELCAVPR

[17] = system: P388/ADR; assay: cells; format: functional; conditions: Mus musculus
[18] = system: SN12K1; assay: cells; format: functional; conditions: Homo sapiens
[19] = system: P388; assay: cells; format: functional; conditions: Mus musculus
[20] = intracellular Trypanosoma cruzi inhibitors in host cells – cell-based, plate reader, cherry-pick samples, set 3, dose response (AID 651818); format: functional;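 further: compounds incubated with infected cells for about four days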
[21] = toxicity toward HepG2 liver cells – cell-based, plate reader, cherry-pick, antagonist series, cytotoxicity control, dose response (AID 743416); format: functional
[22] = blockade of melanocortin 4 receptor signaling – cell-based, plate reader, cherry pick, counter-screen for LGR2 antagonist project, dose response (AID 743444); format: functional;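 further: transfected HEK 293 cells stimulated with alpha-MSH peptide; potency of inhibitors of the alpha-MSH evoked signal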
[23] = Luminescent dose response cell-based high throughput screening assay for inhibitors of the Janus kinase 2 mutant JAK2V617F. [Related pubchem assays: 1446 (Primary screen.), 1521 (Confirmation assay.), 1486 (Counter screen.)]; format: functional

In the case of `O=C(Nc1ccc(S(=O)(=O)Nc2nccs2)cc1)c1nn(-c2ccc(F)cc2)ccc1=O`, the IC50 [1] is reported as 4.55 µM (active) and the IC50 [2] is reported as 22.3 µM (inactive).

In the case of `O=C(Nc1ccccn1)c1sc2cc([N+](=O)[O-])ccc2c1Cl`, the IC50 [3] is reported as > 80 µM (inactive).

For `O=C(Nc1nc(-c2ccccn2)cs1)c1cc(S(=O)(=O)N2CCOCC2)ccc1F`, the IC50 [4] was 7.21 µM (active) and the IC50 [5] was 39.8 µM (inactive).

In the case of `Cc1ccccc1OCC(=O)NCC(=O)OCC(=O)c1ccc([N+](=O)[O-])cc1`, the IC50 [3] is reported as > 80 µM (inactive).

In the case of `CC1=NN(c2ccc(C)c(C)c2)C(=O)/C1=C/c1ccc2c(c1)n(C)c(=O)n2C`, the IC50 [6] is reported as > 128 µM (inactive).

With `Nc1ccc2[nH]c(CCCCCCCCc3nc4cc(N)ccc4[nH]3)nc2c1` the IC50 [7] was 18.7 µM (active) and the IC50 [2] was 11.4 µM (active).

For `CC1CN(c2ccccc2)NC1=O` (configuration not stated), the IC50 [3] was 41.2 µM (inactive).

For `O=C(CSc1n[nH]c(-c2ccccn2)n1)Nc1ccc(F)cc1`, the EC50 [8] was 12.6 µM (active), the IC50 [4] was 5.65 µM (active) and the EC50 [9] was > 120 µM (not active). The EC50 [10] was 11.5 µM (active).

In the case of `COc1ccc(-c2cc(-c3nnc(COC(=O)C4CC4)o3)c3ccccc3n2)cc1OC`, the AC50 [11] is reported as 43.2 µM (active), the AC50 [12] is reported as > 52 µM (inactive) and the AC50 [13] is reported as > 52 µM (inactive). The IC50 [5] was > 79 µM (inactive).

For `Cc1ccccc1N/C(SCc1cccc(Br)c1)=C(/C#N)C(N)=O`, the IC50 [3] was > 80 µM (inactive).

In the case of `CC(=O)Nc1cc2c(cc1[N+](=O)[O-])-c1ccccc1C2O` (configuration not stated), the IC50 [3] is reported as > 80 µM (inactive).

With `Cc1cc(N2CCN(C(=O)Nc3ccccc3C#N)CC2)c2ccccc2n1` the IC50 [2] was 21.3 µM (inactive).

With `COC1(OC)C=CC(=O)C=C1NC(=O)c1ccccc1OC(C)=O` the IC50 [14] was > 47.1 µM (inactive), the IC50 [3] was > 80 µM (inactive) and the EC50 [15] was > 53 µM (inactive).

For `CCN(CC)CC[n+]1ccc2c(C)c3[nH]c4ccc(O)cc4c3c(C)c2c1`, the AC50 [16] was 6.31 µM (inconclusive), the GI50 [17] was 2.21 µM (inactive) and the GI50 [18] was 0.948 µM (active). For the same compound, the GI50 [19] was 0.012 µM (active).

With `CC1=C2C(O)C(C(C)C(=O)NC(C)C)CCC2(C)C=CC1=O` (configuration not stated) the GI50 [17] was > 100 µM (inactive), the GI50 [18] was > 100 µM (inactive) and the GI50 [19] was > 100 µM (inactive).

In the case of `CN(C)CC1CCCC(CN(C)C)C1=O` (configuration not stated), the GI50 [17] is reported as 0.0164 µM (active), the GI50 [18] is reported as 16.3 µM (inactive) and the GI50 [19] is reported as 0.0614 µM (active).

With `Cc1ccc(N2C(=O)C3CSCN3C2=O)cc1` (configuration not stated) the GI50 [17] was > 100 µM (inactive), the GI50 [18] was > 100 µM (inactive) and the GI50 [19] was > 100 µM (inactive).

In the case of `C[C@H]1CN([C@@H](C)CO)C(=O)Cc2cc(NC(=O)Nc3ccc4c(c3)OCO4)ccc2O[C@H]1CN(C)Cc1ccc(C(F)(F)F)cc1`, the AC50 [20] is reported as 7.92 µM (active).

With `C[C@H](CO)N1C[C@H](C)[C@H](CN(C)Cc2ccc(-c3ccccc3)cc2)Oc2c(NC(=O)Nc3ccc(C(F)(F)F)cc3)cccc2C1=O` the AC50 [20] was 6 µM (active).

With `C[C@@H]1CN([C@H](C)CO)C(=O)c2cccc(NC(=O)Nc3ccc4c(c3)OCO4)c2O[C@@H]1CN(C)Cc1ccc(C(=O)Nc2ccccc2N)cc1` the AC50 [20] was 2.84 µM (active).

With `Cc1noc(C)c1S(=O)(=O)Nc1ccc2c(c1)CC(=O)N([C@H](C)CO)C[C@@H](C)[C@H](CN(C)Cc1ccc(Oc3ccccc3)cc1)O2` the AC50 [20] was 6.34 µM (active).

In the case of `C[C@H](CO)N1C[C@H](C)[C@H](CN(C)Cc2ccncc2)Oc2ncc(C#CCC3CCCCC3)cc2C1=O`, the AC50 [21] is reported as 15.3 µM (active), the AC50 [11] is reported as 30 µM (active) and the AC50 [13] is reported as 16.1 µM (active). The AC50 [22] was 63.3 µM (active).

With `Cc1c(N/N=C2\C(=O)NC(=O)N(c3ccc(Br)cc3)C2=O)c(=O)n(-c2ccccc2)n1C` the IC50 [4] was 6.25 µM (active).

For `Oc1ccc(/C=N/N2CCN(C3c4ccccc4-c4ccccc43)CC2)cc1O`, the IC50 [23] was 3.62 µM (active).

With `CC(=O)OC1CCC2(C)C3CCC4(C)C(c5ccc(=O)oc5)CC5OC54C3CCC2(O)C1` (configuration not stated) the GI50 [17] was > 200 µM (inactive), the GI50 [18] was 0.948 µM (active) and the GI50 [19] was > 200 µM (inactive).

For `CCOC(=O)Nc1ccc2c(c1)N(C(=O)CCN(CC)CC)c1ccccc1S2` [ETHACIZINE], the GI50 [18] was 33.6 µM (inactive) and the GI50 [19] was 9.46 µM (inactive).
